From the METLIN SMRT retention time set (Domingo-Almenara et al. 2019)

Assay: gradient 5% acetonitrile 3 min, to 50% in 2 min, to 85% in 15 min, held 3 min, 100 µL/min
Settings: column: Zorbax Extend-C18 2.1 x 50 mm; eluents: water / acetonitrile, 0.1% formic acid
Summary of the method: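 Mixtures of ~100 pure standards were chromatographed on a Zorbax Extend-C18 column (2.1 × 50 mm, 1.8 μm) at 100 μL/min using water and acetonitrile, each with 0.1% formic acid. Detection used a quadrupole time-of-flight mass spectrometer in positive and negative ionization mode, and data collection spanned 3 months. Retention time was obtained from adduct peaks picked computationally and each checked manually.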

Row | Compound | RP-LC retention time
1 | c1cc(-c2nnc3sc(-c4csc5c4CCCC5)nn23)ccn1 | 993 s
2 | Cc1cc(C)cc(C(=O)NCCc2nc3cccnc3n2C(C)C)c1 | 744 s
3 | Fc1cccc(-c2noc(Cc3nnc(-c4cccc(Cl)c4)o3)n2)c1 | 1110 s
4 | CCn1cc(S(=O)(=O)Nc2ccc(C)c(F)c2)c2cccnc21 | 799 s
5 | Cc1c(Cl)cccc1NC(=O)Cn1nc(N(C)C)c2ccccc2c1=O | 906 s
6 | CCN(CC)CCCC(C)Nc1ccnc(/C=C/c2ccc(Cl)cc2)c1 (stereo not drawn) | 602 s
7 | Cc1ccc(C)c(S(=O)(=O)N2c3ccccc3CC2c2nc(C(C)C)no2)c1 (stereo not drawn) | 1230 s
8 | COC(=O)c1cc(OCC(=O)Nc2cc(F)ccc2F)c2cc(OC)ccc2n1 | 880 s
9 | COc1ccc(NC(=O)C2CCN(S(C)(=O)=O)c3ccccc3O2)cc1 (stereo not drawn) | 824 s
10 | O=C(Cn1nc(Cc2ccncc2)c2ccccc2c1=O)N1CC=C(c2ccccc2)CC1 | 685 s
11 | NC(C(=O)N[C@@H]1C(=O)N2C(C(=O)O)=C(Cl)CS[C@H]12)c1ccccc1 (stereo partly drawn) | 563 s
12 | O=C(c1cccs1)N1CCN(c2ccc(=O)n(-c3cccc(Cl)c3)n2)CC1 | 814 s
13 | O=S(=O)(Cc1ccccc1)N1CCC(OC2CCN(Cc3cccnc3)CC2)CC1 | 615 s
14 | O=C(C1=NN(Cc2ccccc2F)c2ccc(Cl)cc2S1(=O)=O)N1CCOCC1 | 875 s
15 | CCOc1ccc(-c2noc(CN3C(=O)COc4ccc(Cl)cc43)n2)cc1OC | 1050 s
16 | Cc1cnc(C2CN(Cc3ccc(F)cc3F)C2)n1Cc1cccnc1 | 544 s
17 | COc1ccccc1CNC(=O)Cn1c(=O)cc(-c2nc(C(C)C)no2)c2ccccc21 | 972 s
18 | O=C(c1ccco1)N1CCCN(c2ccc(=O)n(-c3ccccc3)n2)CC1 | 684 s
19 | Cc1c(C(=O)N2CCCC(C)C2)cnn1-c1ccc(-c2nc(C(C)(C)C)no2)cn1 (stereo not drawn) | 1230 s
20 | COc1ccccc1-c1nc(-c2cn(Cc3ccc(F)cc3)nn2)no1 | 927 s
21 | Cc1ccc(-c2ncccc2CNS(=O)(=O)Cc2cc(F)cc(F)c2)cc1 | 739 s
22 | Cc1noc2ncnc(N3CCCC(C(=O)Nc4ccc(N5CCC(C)CC5)cc4)C3)c12 (stereo not drawn) | 698 s

Row | Compound | RP-LC retention time
23 | O=S(=O)(Nc1cc(F)cc(F)c1)c1ccc(-c2nnc(C3CC3)o2)o1 | 878 s
24 | Cc1ccccc1CNC(=O)c1cc2n(n1)CCCC2 | 811 s
25 | Cc1ccn2c(NC(=O)c3ccccc3F)c(-c3ccccc3)nc2c1 | 653 s
26 | CC1=C(C(=O)Nc2cc(Cl)ccc2C(=O)NC2CCC(C)CC2)SCCO1 (stereo not drawn) | 1310 s
27 | COc1ccc(Cl)cc1N(C)C(=O)C(=O)Nc1ccc2nc3n(c(=O)c2c1)CCCCC3 | 822 s
28 | O=C(O)c1cc(Nc2ccc(F)cc2)c2cccc(Cl)c2n1 | 624 s
29 | COc1ccc(NC(=O)Cn2c(=O)c(CCC(=O)NCC(C)C)nc3ccccc32)c(OC)c1 | 780 s
30 | CN(CCc1noc(-c2ccccc2Cl)n1)C(=O)COc1ccccc1 | 900 s
31 | O=C(Cc1csc(-c2ccccc2)n1)Nc1nc(-c2ccc(F)cc2)cs1 | 1140 s
32 | COCCNC(=O)CSc1nc(-c2ccc(F)cc2)[nH]c1-c1ccccc1 | 624 s
33 | Cc1nn2c(CNS(=O)(=O)c3ccc(C)c(Cl)c3)c(-c3ccccc3)nc2s1 | 962 s
34 | COc1ccccc1Cn1c(COc2ccccc2OC)nc2ccccc21 | 726 s
35 | CCCc1ccc(S(=O)(=O)N2CCC3(CC2)CN(C)CC3c2nnc(CC)o2)cc1 (stereo not drawn) | 692 s
36 | Cc1cnc(C(=O)N2CCC(c3noc(-c4cccnc4)n3)C2)cn1 (stereo not drawn) | 628 s
37 | COc1ccc(Cn2nnc3cc(C(=O)NCc4ccco4)ccc32)cc1 | 818 s
38 | O=C(Cc1ccccc1)NCc1nc(-c2ccc3oc(-c4ccccc4)nc3c2)no1 | 997 s
39 | O=C(CN1CCCCC1c1nc(-c2cccc(F)c2)no1)Nc1cccc(F)c1 (stereo not drawn) | 967 s
40 | CNc1cccnc1OC1CCN(S(=O)(=O)c2ccc3c(c2)CCC3)C1 (stereo not drawn) | 765 s
41 | COCc1nc(C2CCN(C(=O)c3ccoc3)C2)no1 (stereo not drawn) | 644 s
42 | Cc1cccc(-n2c(=O)c3c(cc(C)n3C)n(CC(=O)Nc3cccc(C(C)C)c3)c2=O)c1 | 626 s
43 | Cc1cccc(NC(=O)N2CCc3nc(-c4ccccc4)ncc3C2)c1C | 901 s
44 | Cc1ccc(-n2ccnc2SCc2nc(-c3ccc(Br)cc3)no2)cc1 | 1090 s

Row | Compound | RP-LC retention time
45 | CC1CCN(C(=O)C2CCc3sc(C(=O)N(C)C)cc3C2)CC1 (stereo not drawn) | 717 s
46 | CC(C)CNC(=O)N1CCN(Cc2nc3cc(C(=O)N(C)C)ccc3o2)CC1 | 579 s
47 | CCOC(=O)C1CCN(C(c2cccnc2)c2c(NC(=O)c3ccco3)sc(C)c2C)CC1 (stereo not drawn) | 926 s
48 | CCC(C)NS(=O)(=O)c1ccccc1-c1nc(-c2ccc(C)cc2)no1 (stereo not drawn) | 1270 s
49 | CC(=O)c1cccc(NC(=O)N2CCN(c3nc4ccccc4n3C)CC2)c1 | 566 s
50 | COC(=O)c1ccccc1NC(=O)Cn1c(=O)c(CCC(=O)NC2CCCC2)nc2ccccc21 | 898 s
51 | Cc1cc(-c2c(C)sc(C)c2S(=O)(=O)Nc2cccc(Cl)c2)n[nH]1 | 1110 s
52 | Cn1cc(C2=CCN(S(=O)(=O)c3ccccc3F)CC2)c2cccnc21 | 944 s
53 | Cc1cc2c(cc1S(=O)(=O)N1CCC(C(=O)N3CCCCC3)CC1)OCC(=O)N2 | 734 s
54 | CCOc1ccc(S(=O)(=O)NCC2CCN(C(=O)c3cccn(C)c3=O)CC2)cc1C | 657 s
55 | COc1ccc(Cl)cc1C(=O)Nc1ccc(-c2nc(C)no2)cc1 | 719 s
56 | Cc1ccc(CNC(=O)c2ccc(CN3CCN(C4CCCC4)C(=O)C3=O)cc2)o1 | 728 s
57 | Cc1nc(-c2csc(S(=O)(=O)N3CCCC(C(=O)NCCc4ccccc4)C3)c2)no1 (stereo not drawn) | 901 s
58 | O=C(CN1C(=O)CN(C(=O)Nc2ccccc2)c2ccccc21)N1CCCc2ccccc21 | 940 s
59 | COc1cccc(-c2nnc(Cc3nc(-c4ccc(C)c(C)c4)no3)o2)c1 | 1120 s
60 | COc1cc(NC(=O)N2CCOc3ccc(Cl)cc32)cc(OC)c1OC | 899 s
61 | CC1=C(c2ccc(C)c(C)c2)S(=O)(=O)N=C1N1CCCN(C(=O)NC(C)C)CC1 | 787 s
62 | COC(=O)C1=CN(CC(=O)N2CCN(c3ccccc3F)CC2)S(=O)(=O)N=C1C | 908 s
63 | Cn1nccc1C(=O)NCc1ccc2c(c1)CCN2C(=O)c1ccc(F)cc1 | 779 s
64 | CCc1ccc(-n2c(-c3ccc(Cl)cc3)cn3c4c(=O)n(C)c(=O)n(C)c4nc23)cc1 | 1150 s
65 | O=C(NCc1ccc(F)cc1)C1CCCN(c2nc3ccsc3c(=O)n2Cc2ccc(F)cc2)C1 (stereo not drawn) | 963 s
66 | Cc1ccc(S(=O)(=O)[C@H]2CS(=O)(=O)C[C@@H]2N2CCN(c3ccccc3F)CC2)cc1 | 994 s

Row | Compound | RP-LC retention time
67 | CC1(C)CCCC2(C)C(OCCO)=CC(=O)C=C12 (stereo not drawn) | 794 s
68 | Cc1csc(NC(=O)C2CC(=O)N(c3n[nH]c4ccccc34)C2)n1 (stereo not drawn) | 665 s
69 | COc1ccc(CCC(=O)NCCCN2CCOC(c3ccccc3)C2)cc1 (stereo not drawn) | 570 s
70 | COc1cccc(/C=C/c2nc(-c3ccc4oc(C)nc4c3)no2)c1 | 1110 s
71 | Cc1c(C(=O)N2CCCC2)cnn1-c1cc(-c2nc(C3CC3)no2)ccn1 | 864 s
72 | Cc1sc(C)c(S(=O)(=O)Nc2ccc(Cl)cc2)c1-c1cc(C(F)(F)F)on1 | 1210 s
73 | COc1ccc(S(=O)(=O)N2CCCCC2CC(=O)Nc2ncccn2)cc1 (stereo not drawn) | 647 s
74 | O=c1c(=O)n(-c2ccc(Br)cc2)ccn1Cc1ccncc1 | 554 s
75 | COc1ccc(S(=O)(=O)N2CCCC(C(=O)NCc3cccnc3)C2)cc1OC (stereo not drawn) | 591 s
76 | O=C(c1ccc(OC(F)(F)F)cc1)N1C[C@@H]2C[C@H]1C[C@@H]2NS(=O)(=O)c1ccccc1 | 884 s
77 | CN(CC(=O)N1CCOCC1)c1nc(C2CC2)nc2c1CCC2 | 560 s
78 | CCCCCCOc1ccccc1C(N)=O | 1040 s
79 | CC(CCc1ccccc1)NC(=O)Cn1nc2c(Oc3ccccc3)nccn2c1=O (stereo not drawn) | 880 s
80 | Cc1cc(=O)n(CC(=O)Nc2cc(F)ccc2C)c(N2CCOCC2)n1 | 689 s
81 | Cc1ccc(Nc2ncccc2S(N)(=O)=O)cc1C | 852 s
82 | Cc1cccc(NC(=O)C2CCN(S(=O)(=O)c3ccc4c(c3)sc(=O)n4C(C)C)CC2)n1 | 815 s
83 | COc1ccc(-n2ccc(=O)c(-c3nc(-c4cc(OC)cc(OC)c4)no3)n2)cc1 | 887 s
84 | CCOC(=O)N1CCN(C(=O)CSc2nccc3c(OC)cccc23)CC1 | 810 s
85 | CCOc1ccc(C2Cn3nnc(-c4nc(-c5ccc(F)c(F)c5)no4)c3CO2)cc1 (stereo not drawn) | 1250 s
86 | CCOc1ccc(-c2cc3c(=O)n(Cc4nc(-c5ccc(F)cc5)no4)ncn3n2)cc1 | 1160 s
87 | C=CCNc1ncnc2sc(SC)nc12 | 855 s
88 | Cc1ccc(NC(=O)Nc2cnn(-c3ncncc3N3CCOCC3)c2)cc1Cl | 695 s
